Earlier results in patent US20090214619A1, “IMPLANT FOR INTRAOCULAR DRUG DELIVERY” (THERAKINE LTD., priority 2004, published 2009).

Tests used:
[1] = tested on: degenerative diseases such as choroidal neovascularization, macular edema, macular degeneration, branch retinal vein occlusion; settings: patients with choroidal neovascularization
HSP induced uveitis = settings: rats with HSP induced uveitis; decreased from 68% without treatment

| Molecule | effect on vision [1] | development of uveitis (HSP induced uveitis) |
| --- | --- | --- |
| Infliximab: chimeric Anti TNF Mab | improve vision |  |
| IL-4: pleiotropic cytokine produced by activated T cells, mast cells, and basophiles (protein, UniProt P05112 25-153, looked up) Interleukin-4: HKCDITLQEIIKTLNSLTEQKTLCTELTVTDIFAASKNTTEKETFCRAATVLRQFYSHHEKDTRCLGATAQQFHRHKQLIRFLKRLDRNLWGLAGLNSCPVKEANQSTLENFLERLKTIMREKYSKCSS |  | 30.4% |
